The assay concerns the target T1, Multidrug resistance protein CDR2 (Candida albicans (strain SC5314 / ATCC MYA-2876), UniProt P78595).
T1 sequence (P78595 whole entry): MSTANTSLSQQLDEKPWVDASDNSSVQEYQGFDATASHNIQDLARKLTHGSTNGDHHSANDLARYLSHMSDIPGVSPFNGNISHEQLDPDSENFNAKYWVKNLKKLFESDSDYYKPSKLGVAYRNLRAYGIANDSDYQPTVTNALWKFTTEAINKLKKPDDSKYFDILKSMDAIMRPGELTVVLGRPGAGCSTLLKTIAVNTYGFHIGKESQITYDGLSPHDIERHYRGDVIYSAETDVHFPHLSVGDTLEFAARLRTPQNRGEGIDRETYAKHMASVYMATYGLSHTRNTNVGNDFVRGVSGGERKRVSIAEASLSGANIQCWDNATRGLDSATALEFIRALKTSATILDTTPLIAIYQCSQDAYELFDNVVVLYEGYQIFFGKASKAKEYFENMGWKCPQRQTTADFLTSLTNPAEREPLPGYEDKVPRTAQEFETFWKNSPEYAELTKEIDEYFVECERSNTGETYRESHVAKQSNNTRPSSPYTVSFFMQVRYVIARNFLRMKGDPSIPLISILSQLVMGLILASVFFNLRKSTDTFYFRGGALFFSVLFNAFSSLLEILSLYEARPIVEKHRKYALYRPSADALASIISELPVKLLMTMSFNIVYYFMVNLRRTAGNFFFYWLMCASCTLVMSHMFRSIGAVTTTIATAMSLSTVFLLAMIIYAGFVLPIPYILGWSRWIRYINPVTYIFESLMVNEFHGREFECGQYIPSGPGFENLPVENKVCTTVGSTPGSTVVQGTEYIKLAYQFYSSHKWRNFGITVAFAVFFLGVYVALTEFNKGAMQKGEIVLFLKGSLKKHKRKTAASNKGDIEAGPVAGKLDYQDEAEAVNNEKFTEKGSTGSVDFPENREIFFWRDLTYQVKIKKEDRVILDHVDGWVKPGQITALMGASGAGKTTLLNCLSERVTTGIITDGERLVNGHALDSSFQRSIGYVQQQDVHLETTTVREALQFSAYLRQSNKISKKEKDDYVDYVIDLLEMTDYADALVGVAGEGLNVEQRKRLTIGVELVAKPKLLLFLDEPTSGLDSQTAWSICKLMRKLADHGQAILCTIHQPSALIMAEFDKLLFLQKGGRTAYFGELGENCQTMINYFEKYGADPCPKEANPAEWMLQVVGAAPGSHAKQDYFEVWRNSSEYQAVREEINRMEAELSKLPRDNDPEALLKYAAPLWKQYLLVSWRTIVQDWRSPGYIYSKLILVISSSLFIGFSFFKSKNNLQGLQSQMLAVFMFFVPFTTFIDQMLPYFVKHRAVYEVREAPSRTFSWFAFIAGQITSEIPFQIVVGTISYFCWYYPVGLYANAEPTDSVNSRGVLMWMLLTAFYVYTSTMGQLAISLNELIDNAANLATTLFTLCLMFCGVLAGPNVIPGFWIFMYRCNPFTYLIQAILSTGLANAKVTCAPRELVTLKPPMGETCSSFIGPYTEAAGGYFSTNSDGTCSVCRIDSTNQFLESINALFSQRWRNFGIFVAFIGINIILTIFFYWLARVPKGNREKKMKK
In words: inhibition of Nile Red efflux via Candida CDR2 – S. cerevisiae AD1-8u, singleplex, Cherry Pick1 hits, dose response (AID 588604).

As for `O=[N+]([O-])c1cc(CN=Nc2ccccn2)ccc1Cl`, the EC50 stood at 9.33 µM.
